Read-outs that look alike come from different tables or passages of the source.
Key:
[1] = tested on: CXF1103 patient-derived colorectal cancer model; experiment: Xenograft anti-tumor efficacy; format: in vivo, mice; settings: tumor weight, TPP-2090 10 mg/kg twice weekly for 4 weeks
Experimental: (§1) After tumor growth to a size of approximately 40 mm^2 mice were randomized into control and treatment groups with a respective group size of n=8-10. Mice were treated with various doses of anti-TWEAKR antibodies diluted in PBS by intravenous injection (i.v.) into the tail vein with a twice per week schedule (q4dx3: applications twice per week, three applications in total; q4dx8: applications twice per week, eight applications in total). Combination therapy partners such as Regorafenib (10 mg/kg daily, per os) and the PI3K-inhibitor 1 (10 mg/kg, BID, 2d on, 5d off (applications twice daily on two consecutive days, followed by five days without treatment), i.v.) were diluted in their respective formulations whereas the standard of care therapies Irinotecan (5 mg/kg, 4d on, 3d off (applications once daily on four consecutive days followed by three days without treatment) i.v.) and Paclitaxel (16 mg/kg, q7dx4 (applications once per week, four applications in total), i.v.) were diluted in 0.9% NaCl. Animals injected with PBS served as the control (vehicle) group. The applied volume of the compounds was 5 ml/kg body weight per mouse.
(§2) Tumor growth was monitored 2-3 times per week by caliper measurement (length×width in mm) as well as body weight (in g). At the end of study tumors were dissected, weighted and used for the calculation of tumor-to-control (T/C) ratios (mean tumor weight of treated animals divided by mean tumor weight of control/vehicle animals). […] 2×10^6 tumor cells in 100% Matrigel were s.c. inoculated in female nude mice. After 7d established tumors with a size of about 40 mm^2 were treated with 0.3 mg/kg, 1 mg/kg and 3 mg/kg of antibodies (i.v., q4dx3: applications twice per week, three applications in total).
(§3) Animal studies were conducted as described in example 8 for further human colorectal cancer tumor cell lines Colo205 and LoVo and for further human colorectal cancer patient-derived models Co7553, Co5896, Co5676, Co5841, CXF 1103 and CXF 533. […] The formulation of regorafenib is described in example 8.

[2] = tested on: Co5841 patient-derived colorectal cancer model; experiment: Xenograft anti-tumor efficacy; format: in vivo, mice; settings: tumor weight, TPP-2090 10 mg/kg twice weekly for 4 weeks
Experimental: as §1, §2, §3

[3] = tested on: Co5676 patient-derived colorectal cancer model; experiment: Xenograft anti-tumor efficacy; format: in vivo, mice; settings: tumor area, TPP-2090 10 mg/kg twice weekly for 4 weeks
Experimental: as §1, §2, §3

[4] = tested on: CXF533 patient-derived colorectal cancer model; experiment: Xenograft anti-tumor efficacy; format: in vivo, mice; settings: tumor weight, TPP-2090 10 mg/kg twice weekly for 4 weeks
Experimental: as §1, §2, §3

[5] = tested on: LoVo xenograft (colorectal cancer); experiment: Xenograft anti-tumor efficacy; format: in vivo, mice; settings: tumor weight, TPP-2090 10 mg/kg twice weekly for 4 weeks
Experimental: as §1, §2, §3

[6] = tested on: Colo205 xenograft (colorectal cancer); experiment: Xenograft anti-tumor efficacy; format: in vivo, mice; settings: tumor weight, TPP-2090 10 mg/kg twice weekly for 4 weeks
Experimental: as §1, §2, §3

[7] = tested on: Co7553 patient-derived colorectal cancer model; experiment: Xenograft anti-tumor efficacy; format: in vivo, mice; settings: tumor weight, TPP-2090 10 mg/kg twice weekly for 4 weeks
Description: Tumor growth was monitored 2-3 times per week by caliper measurement (length×width in mm) as well as body weight (in g). […]

[8] = molecular target: T1, TWEAKR(34-68)-Fc fusion protein (TPP-2203) (Homo sapiens, UniProt Q9NP84); experiment: ELISA with TWEAKR cysteine rich domain; format: binding; settings: coating 1 μg/ml; 0.08 and 0.3 μg/ml biotinylated IgG
T1 construct: the truncated ectodomain 34-68 were expressed and purified as Fc fusion proteins; made in house
Description: (§4) In a first approach to characterize the binding epitope of the aforementioned antibodies, a N- and C-terminal truncation mutant of the TWEAKR ectodomain was generated and tested for its ability to bind to the different anti-TWEAKR antibodies. N-terminally, amino acids 28 to 33 and C-terminally amino acids 69 to 80 were deleted, thus the cysteine rich domain with disulfide bridges between Cys36-Cys49, Cys52-Cys67 and Cys55-Cys64 remains intact (compare FIG. 2). Both constructs, the full ectodomain 28-80 including the N- and C-terminus and the truncated ectodomain 34-68 were expressed and purified as Fc fusion proteins TPP-2202 and TPP-2203, respectively.
(§5) To analyze for binding, 1 μg/ml of the respective dimeric TWEAKR-Fc construct were coated and, 0.3 μg/ml and 0.08 μg/ml of biotinylated IgG were used as soluble binding partner. Detection was done with Streptavidin-HRP and Amplex-Red substrate. IgGs were biotinylated using an approximately 2-fold molar excess of biotin-LC-NHS (Pierce; Cat. No. 21347) according to manufacturer's instructions and desalted using Zeba desalting columns (Pierce; Cat. No. 89889).

TWEAKR = TWEAKR (Homo sapiens, UniProt Q9NP84); settings: published data, read-out: KD / binding affinity to TWEAKR (published), cited from earlier work
[9] = molecular target: T2, TWEAKR(28-68)-HIS (TPP-1984) (Homo sapiens, UniProt Q9NP84); experiment: ELISA with C-terminally truncated TWEAKR ectodomain; format: binding; settings: coating 1 μg/ml; 0.08 and 0.3 μg/ml biotinylated IgG
T2 construct: Extracellular domain with C-terminal truncation (28-68) fused to HIS6 tag; made in house
Experimental: as §5

NCI-H1975 cells = experiment: Inhibition of proliferation (Cell Titer Glo); format: cell-based, human; settings: 72h, 100 μg/ml antibody or *100 ng/ml TWEAK
Experimental: (§6) Therefore cells were plated in 96well plates in 750 assay medium (growth media from Table 21, plus 100 ng/ml IFN gamma for 786-O cells) at the following cell numbers: WiDr cells 3000 cells/well, 786-O cells 2500 cells/well. 24 h later cells were incubated with anti-TWEAKR antibodies (see Table 26), recombinant human TWEAK or isotype control IgG (not shown) at the indicated concentrations (antibodies from 0.03-300 μg/ml, TWEAK 100 or 300 ng/ml). At the time of antibody addition cell viability was determined in sister plates (time point zero): therefore 750/well CTG solution (Promega Cell Titer Glo solution (catalog # G755B and G756B) was added to the cells, incubated for 10 minutes and luminescence was read on a Victor V (Perkin Elmer). 96 h after incubation with the agents, cell viability was determined in the assay plates by addition of 100 μl/well CTG solution, 10 min incubation and reading of luminescence. Proliferation in control wells was calculated by subtracting time zero values from the luminescence values in the untreated control wells. % of cell proliferation was calculated in the compound treated wells as compared to the untreated control wells.
(§7) To evaluate, whether this strong anti-proliferative activity can also be observed in a broader cell panel, in addition LOVO, NCI-H1975, SW-480 (all 3000 cells/well), HT-29 (4000 cells/well), A253 and SK-OV3 (both 2500 cells/well) cells were incubated with 100 μg/ml anti-TWEAKR antibodies or TWEAK ligand for the time periods as indicated in Table 27. All cells were seeded in the growth media indicated in Table 21 and for all cells except for WiDr cells 100 ng/ml IFNgamma was added to the assay medium when seeding the cells. The percentage of growth inhibition for treated cells as compared to proliferation in untreated control cells was measured and calculated as described above. As shown in Table 27 the antibodies of the current invention are more efficacious as compared to other known antibodies in inhibiting proliferation of various cancer cell lines at 100 μg/ml. In most experiments the antibodies of the current invention also show equal or stronger efficacy as compared to 100-300 ng/ml TWEAK ligand. Thus, the antibodies described in this invention are unique in their activity to induce apoptosis and proliferation inhibition in a broad panel of cancer cell lines.

SW480 cells = experiment: Inhibition of proliferation (Cell Titer Glo); format: cell-based, human; settings: 72h, 100 μg/ml antibody or *100 ng/ml TWEAK
Experimental: as §6, §7

Lovo cells = experiment: Inhibition of proliferation (Cell Titer Glo); format: cell-based, human; settings: 72h, 100 μg/ml antibody or *100 ng/ml TWEAK
Experimental: as §6, §7

[10] = molecular target: T3, TWEAKR protein (TPP-2305) (Homo sapiens, UniProt Q9NP84); experiment: Biacore monovalent KD with TWEAKR protein; format: binding; settings: first order 1:1 binding model
T3 construct: TPP-2305; hTNFRSF12Aaa28-80; Human; 30R-AT080; 168; purchased Fitzgerald Inc 30R-AT080
Experimental: Binding affinities of anti-TWEAKR antibodies were determined by surface plasmon resonance analysis on a Biacore T100 instrument (GE Healthcare Biacore, Inc.). Antibodies were immobilized onto a CM5 sensor chip through an indirect capturing reagent, anti-human IgG(Fc). Reagents from the “Human Antibody Capture Kit” (BR-1008-39, GE Healthcare Biacore, Inc.) were used as described by the manufacturer. Anti-TWEAKR antibodies were injected at a concentration of 10 μg/ml at 10 μl/min for 10 sec.
Sensorgrams were generated after in-line reference cell correction followed by buffer sample subtraction. The dissociation equilibrium constant (KD) was calculated based on the ratio of association (kon) and dissociation rated (koff) constants, obtained by fitting sensorgrams with a first order 1:1 binding model.

[11] = molecular target: T4, TWEAKR-Fc fusion protein (TPP-2202), aa 28-80 (Homo sapiens, UniProt Q9NP84); experiment: ELISA with TWEAKR full ectodomain; format: binding; settings: coating 1 μg/ml; 0.08 and 0.3 μg/ml biotinylated IgG
T4 construct: the full ectodomain 28-80 including the N- and C-terminus; made in house
Description: as §4, §5

| Compound | Final T/C [1] | Final T/C [2] | Final T/C [3] | Final T/C [4] | Final T/C [5] | Final T/C [6] | Final T/C [7] | ELISA binding to N- and C-terminally truncated construct (34-68) [8] | Kd (TWEAKR; listed as BIIB036/P4A8) [nM] | Kd (TWEAKR) [nM] | ELISA binding to C-terminally truncated ectodomain (28-68) [9] | % Inhibition of proliferation (NCI-H1975 cells) [%] | % Inhibition of proliferation (SW480 cells) [%] | % Inhibition of proliferation (Lovo cells) [%] | ka [10] [M⁻¹ s⁻¹] | kd [10] [s⁻¹] | ELISA binding to full ectodomain (28-80) [11] |
| --- | --- | --- | --- | --- | --- | --- | --- | --- | --- | --- | --- | --- | --- | --- | --- | --- | --- |
| O=c1[nH]cc(F)c(=O)[nH]1 [5-FU, 5-fluorouracil] | 0.97 | 0.48 | 0.45 | 0.28 | – | – | – | – | – | – | – | – | – | – | – | – | – |
| CCc1c2c(nc3ccc(OC(=O)N4CCC(N5CCCCC5)CC4)cc13)-c1cc3c(c(=O)n1C2)COC(=O)[C@]3(O)CC [Irinotecan] | 0.66 | 0.17 | 0.37 | – | 0.52 | 0.47 | 0.11 | – | – | – | – | – | – | – | – | – | – |
| O=C1[O][Pt]2([NH][C@@H]3CCCC[C@H]3[NH]2)[O]C1=O [Oxaliplatin, oxaliplatin] | 1.29 | 0.81 | – | 1.08 | 0.76 | 0.89 | 0.78 | – | – | – | – | – | – | – | – | – | – |
| P4A8(TPP-1324): reference agonistic anti-TWEAKR antibody, human IgG1, variable domains from WO2009/140177; SEQ ID NO 125/126 [reference compound] | – | – | – | – | – | – | – | impaired binding | 1.7 | 2.6 | impaired binding | 20 | 5 | −5 | 1.2e+06 | 0.0027 | saturated binding |

Reference: patent US20160237160A1, “ANTI-TWEAKR ANTIBODIES AND USES THEREOF” (BAYER PHARMA AKTIENGESELLSCHAFT, priority 2013, published 2016)
